Columns and labels:
[1] = target: T1, calcitriol receptor (specific receptor protein from the intestines of juvenile pigs) (Sus scrofa, UniProt A3RGC1); assay: calcitriol-receptor test (competition with 3H-calcitriol); format: binding, pig; conditions: KF = concentration of test substance / concentration of calcitriol at 50% competition
T1 construct: a specific receptor protein from the intestines of juvenile pigs; from tissue; host or cells: intestines of juvenile pigs
T1 sequence (A3RGC1 1-427): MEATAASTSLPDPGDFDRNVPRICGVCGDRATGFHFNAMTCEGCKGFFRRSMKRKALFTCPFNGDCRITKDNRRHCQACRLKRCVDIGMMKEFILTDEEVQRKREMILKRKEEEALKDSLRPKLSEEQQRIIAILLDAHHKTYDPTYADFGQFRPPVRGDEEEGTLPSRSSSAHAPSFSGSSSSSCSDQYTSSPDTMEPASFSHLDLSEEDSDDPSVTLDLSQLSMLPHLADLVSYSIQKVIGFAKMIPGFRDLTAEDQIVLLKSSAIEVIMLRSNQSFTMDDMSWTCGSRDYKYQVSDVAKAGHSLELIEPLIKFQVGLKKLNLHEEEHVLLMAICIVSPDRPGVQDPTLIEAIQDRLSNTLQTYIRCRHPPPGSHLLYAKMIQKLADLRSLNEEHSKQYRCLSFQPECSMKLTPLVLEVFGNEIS

[2] = test system: HL 60 cells; assay: differentiation induction of HL 60 cells to macrophages (NBT reduction); format: cell-based, human; conditions: DR = test substance dose / calcitriol dose for comparable semi-maximum actions; 96 hours incubation
Description: The differentiation-stimulating action of calcitriol analogues is also detected quantitatively.
It is known in the literature [Mangelsdorf, D. J. et al., J. Cell.
HL 60 cells are cultivated in tissue culture medium (RPMI 10% fetal calf serum) at 37° C. in an atmosphere of 5% CO2 in air.
For substance testing, the cells are centrifuged off, and 2.0×10^5 cells/ml in phenol red-free tissue culture medium is taken up. The test substances are dissolved in ethanol and diluted with tissue culture medium without phenol red to the desired concentration. The dilution stages are mixed with the cell suspension at a ratio of 1:10, and 100 μl each of this cell suspension that is mixed with substance is pipetted into an indentation of a 96-hole plate. For control, a cell suspension is mixed analogously with the solvent.
After incubation for 96 hours at 37° C. in 5% CO2 in air, 100 μl of an NBT-TPA solution (nitro blue tetrazolium (NBT), final concentration in the batch of 1 mg/ml, tetradecanoyl phorbolmyristate-13-acetate (TPA), final concentration in the batch of 2×10^−7 mol/l) is pipetted into each indentation of the 96-hole plate in the cell suspension.
By incubation for 2 hours at 37° C. and 5% CO2 in air, NBT is reduced to insoluble formazan because of the intracellular oxygen radical release, stimulated by TPA, in the cells that are differentiated to macrophages.
To complete the reaction, the indentations of the 96-hole plate are suctioned off, and the cells are affixed to the bottom of the plate by adding methanol and dried after affixing. To dissolve the intracellular formazan crystals that are formed, 100 μl of potassium hydroxide (2 mol/l) and 100 μl of dimethyl sulfoxide are pipetted into each indentation and ultrasonically treated for 1 minute. The concentration of formazan is measured by spectrophotometry at 650 nm.
As a yardstick for the differentiation induction of HL 60 cells to macrophages, the concentration of formed formazan applies.

[3] = acute hypercalcemic action in rats (serum calcium); format: in vivo; conditions: one-time subcutaneous administration, DR = test substance dose / calcitriol dose for comparable actions
Description: To determine the acute hypercalcemic action of various calcitriol derivatives, the test that is described below is carried out:
During the testing time, the rats are kept in special cages to determine the excretion of water and mineral substances. Urine is collected in 2 fractions (0-16 hours and 16-22 hours). An oral dose of calcium (0.1 mmol of calcium in 6.5% alpha-hydroxypropylcellulose, 5 ml/animal) replaces at 1600 hours the calcium intake that is lacking by food deprivation. At the end of the test, the animals are killed by decapitation and exsanguinated to determine the serum-calcium values. For the primary screen test in vivo, an individual standard dose (200 μg/kg) is tested. For selected substances, the result is supported by establishing a dose-effect relation.
A hypercalcemic action is shown in serum-calcium level values that are higher than in the control.
The significance of differences between substance groups and controls and between test substance and reference substance are supported with suitable statistical processes.

[4] = test system: HL 60 cells; assay: antagonism of the action of calcitriol in HL 60 cells; format: cell-based, human
Description: In the series of 25-oxazole derivatives, the compounds with increasing chain length on the heterocycle in the case of constantly good receptor affinity show considerably weaker differentiation-stimulating agonistic activity in HL 60 cells (Tab. 1). […] This property is continued with increasing chain length in radical Z of general formula I.

Row | Competition Factor KF for Receptor Bonding [1] | dose ratio DR for hypercalcemia [3] | Structure (SMILES) | Dose Ratio for Differentiation Induction in HL 60 Cells [2] | antagonism of the action of calcitriol in HL 60 cells [4]
1 | 2 | – | C=C1C(=CC=C2CCCC3(C)C2CCC3C(C)C=CC(O)C2(c3ncc(C)o3)CC2)CC(O)CC1O [Compound 15, (5Z,7E,22E)-(1S,3R,24R)-25-(5-methyloxazol-2-yl)-26,27-cyclo-9,10-secocholesta-5,7,10(19),22-tetraene-1,3,24-triol] | 3.4 | –
2 | 2 | 300 | C=C1/C(=C\C=C2/CCC[C@]3(C)[C@@H]([C@H](C)/C=C/[C@@H](O)C4(c5ncc(CCC)o5)CC4)CC[C@@H]23)C[C@@H](O)C[C@@H]1O [Compound 14, (5Z,7E,22E)-(1S,3R,24R)-25-(5-Propyloxazol-2-yl)-26,27-cyclo-9,10-secocholesta-5,7,10(19),22-tetraene-1,3,24-triol] | 1.9 | –
3 | 3 | – | C=C1/C(=C\C=C2/CCC[C@]3(C)[C@@H]([C@H](C)/C=C/[C@@H](O)C4(c5ncc(CC)o5)CC4)CC[C@@H]23)C[C@@H](O)C[C@@H]1O [Compound 16, (5Z,7E,22E)-(1S,3R,24R)-25-(5-ethyloxazol-2-yl)-26,27-cyclo-9,10-secocholesta-5,7,10(19),22-tetraene-1,3,24-triol] | 1.3 | antagonize the action of calcitriol
4 | 4 | – | C=C1C(=CC=C2CCCC3(C)C2CCC3C(C)C=CC(O)C2(c3ncc(CCCCC)o3)CC2)CC(O)CC1O [Compound 17, (5Z,7E,22E)-(1S,3R,24R)-25-(5-pentyloxazol-2-yl)-26,27-cyclo-9,10-secocholesta-5,7,10(19),22-tetraene-1,3,24-triol] | >100 | antagonize the action of calcitriol

Source: patent US6613920B1, “Vitamin D derivatives with carbo- or heterocyclic substituents at C-25, process for their production, intermediate products and use for the production of pharmaceutical agents” (Schering Aktiengesellschaft, priority 1996, dated 2003)
